Data as given in patent US8404723B2, “3-cyano 5-thiazaheteroaryl-dihydropyridine and the use thereof for the treatment of cardiovascular diseases” (Bayer Intellectual Property GmbH, priority 2006, dated 2013).

Molecular target: T1, human mineralocorticoid receptor (MR) (Homo sapiens, UniProt P08235)
T1 construct: expressed in transfected cells
T1 sequence (P08235 734-984 limits assumed): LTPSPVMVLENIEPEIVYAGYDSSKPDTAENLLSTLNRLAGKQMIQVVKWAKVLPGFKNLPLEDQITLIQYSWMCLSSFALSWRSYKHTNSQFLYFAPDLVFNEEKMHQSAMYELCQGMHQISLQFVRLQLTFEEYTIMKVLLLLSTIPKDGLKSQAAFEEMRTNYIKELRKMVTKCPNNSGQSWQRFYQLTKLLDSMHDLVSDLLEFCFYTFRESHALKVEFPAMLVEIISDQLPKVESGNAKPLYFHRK
Experiment: Cellular in vitro assay to determine the inhibitory MR activity (GAL4-MR chimera luciferase reporter in CHO K1 cells)
Type: cell-based
Settings: aldosterone as agonist
Source text: 1. Cellular In Vitro Assay to Determine the Inhibitory MR Activity and MR Selectivity Compared with Other Steroid Hormone Receptors
Antagonists of the human mineralocorticoid receptor (MR) are identified, and the activity of the compounds described herein is quantified with the aid of a recombinant cell line. The cell is originally derived from a hamster ovary epithelial cell (Chinese Hamster Ovary, CHO K1, ATCC: American Type Culture Collection, Va. 20108, USA).
An established chimera system in which the ligand-binding domains of human steroid hormone receptors are fused to the DNA-binding domain of the yeast transcription factor GAL4 is used in this CHO K1 cell line. The GAL4-steroid hormone receptor chimeras produced in this way are cotransfected and stably expressed with a reporter construct in the CHO cells.
To generate the GAL4-steroid hormone receptor chimeras, the GAL4 DNA binding domain (amino acids 1-147) from the vector pFC2-dbd (from Stratagene) is cloned with the PCR-amplified ligand-binding domains of the mineralocorticoid receptor (MR, amino acids 734-985), of the glucocorticoid receptor (GR, amino acids 443-777), of the progesterone receptor (PR, amino acids 680-933) and of the androgen receptor (AR, amino acids 667-919) into the vector pIRES2 (from Clontech). The reporter construct, which comprises five copies of the GAL4 binding site upstream of a thymidine kinase promoter, leads to expression of firefly-luciferase (Photinus pyralis) after activation and binding of the GAL4-steroid hormone receptor chimeras by the respective specific agonists aldosterone (MR), dexamethasone (GR), progesterone (PR) and dihydrotestosterone (AR).
The MR, GR, PR and AR cells are plated out in medium (Optimem, 2.5% FCS, 2 mM glutamine, 10 mM HEPES) in 96- (or 384- or 1536-) well microtiter plates on the day before the assay and are kept in a cell incubator (96% humidity, 5% v/v CO2, 37° C.). On the day of the assay, the substances to be tested are taken up in the abovementioned medium and added to the cells. About 10 to 30 minutes after addition of the test substances, the respective specific agonists of the steroid hormone receptors are added. After a further incubation time of 5 to 6 hours, the luciferase activity is measured with the aid of a video camera. The measured relative light units as a function of the substance concentration result in a sigmoidal stimulation curve. The IC50 values are calculated with the aid of the GraphPad PRISM computer program (Version 3.02).

Structure (SMILES)	IC50 [nM]
COc1cc(C#N)ccc1C1C(C#N)=C(C)NC(C)=C1c1nc(C)cs1 (stereo not shown) [Example 1, 4-(4-Cyano-2-methoxyphenyl)-2,6-dimethyl-5-(4-methyl-1,3-thiazol-2-yl)-1,4-dihydropyridine-3-carbonitrile]	94
COc1cc(C#N)ccc1C1C(C#N)=C(C(F)(F)F)NC(C)=C1c1nc(C)cs1 (stereo not shown) [Example 3, 4-(4-Cyano-2-methoxyphenyl)-6-methyl-5-(4-methyl-1,3-thiazol-2-yl)-2-(trifluoromethyl)-1,4-dihydropyridine-3-carbonitrile]	10
CC1=C(C#N)C(c2cccc3c(=O)cc(C)oc23)C(c2nc(C)cs2)=C(C)N1 (stereo not shown) [Example 4, 2,6-Dimethyl-4-(2-methyl-4-oxo-4H-chromen-8-yl)-5-(4-methyl-1,3-thiazol-2-yl)-1,4-dihydro-pyridine-3-carbonitrile]	95
COc1cc(C#N)ccc1C1C(C#N)=C(C)NC(C)=C1c1nc2ccccc2s1 (stereo not shown) [Example 12, 5-(1,3-Benzothiazol-2-yl)-4-(4-cyano-2-methoxyphenyl)-2,6-dimethyl-1,4-dihydropyridine-3-carbonitrile]	74
CC1=C(C#N)C(c2cccc3ncc(C)cc23)C(c2nc(C)cs2)=C(C)N1 (stereo not shown) [Example 18, 2,6-Dimethyl-4-(3-methylquinolin-5-yl)-5-(4-methyl-1,3-thiazol-2-yl)-1,4-dihydropyridine-3-carbonitrile]	278
CCc1cnc(C2=C(C)NC(C)=C(C#N)C2c2ccc(C#N)cc2OC)s1 (stereo not shown) [Example 23, 4-(4-Cyano-2-methoxyphenyl)-5-(5-ethyl-1,3-thiazol-2-yl)-2,6-dimethyl-1,4-dihydropyridine-3-carbonitrile]	18
COc1cc(C#N)ccc1C1C(C#N)=C(C)NC(C)=C1c1nnc(C)s1 (stereo not shown) [Example 24, 4-(4-Cyano-2-methoxyphenyl)-2,6-dimethyl-5-(5-methyl-1,3,4-thiadiazol-2-yl)-1,4-dihydropyridine-3-carbonitrile]	320
